Activity calls are given as the source filed them. The calls are words filed in the database; no cut-off is given here.
Tests used:
[1] = Inhibition of tubulin microtubule disassembly
[2] = tested on: KB; assay: Cytotoxicity against human KB cells; type: functional, cell-based

| Activity [1] | IC50 [1] [nM] | Structure (SMILES) | IC50 [2] [µM] |
| --- | --- | --- | --- |
| inactive | – | CC(C)CC[C@H](C[C@]12C[C@H](CCC(C)C)C(C)(C)[C@](CCC(C)C)(C(=O)C(C(=O)c3ccc(O)c(O)c3)=C1O)C2=O)C(C)C [OCTAHYDROXANTHOCHYMOL] | 20 |
| – | 500 | CC(=O)O[C@H]1C(=O)[C@@]2(C)[C@H]([C@H](OC(=O)c3ccccc3)[C@]3(O)C[C@H](OC(=O)[C@H](O)[C@@H](NC(=O)c4ccccc4)c4ccccc4)C(C)=C1C3(C)C)[C@]1(OC(C)=O)CO[C@@H]1C[C@@H]2O [PACLITAXEL] | – |

From ChEMBL document CHEMBL1155563, “Structure-activity relationship of polyisoprenyl benzophenones from Garcinia pyrifera on the tubulin/microtubule system” (J Nat Prod, 2000)
